According to ChEMBL document CHEMBL3822371, “Rapid Discovery and Structure-Activity Relationships of Pyrazolopyrimidines That Potently Suppress Breast Cancer Cell Growth via SRC Kinase Inhibition with Exceptional Selectivity over ABL Kinase” (J Med Chem, 2016):
pEC50, pIC50: −log10 of the molar value. Each block holds one molecule with its values, some of them ahead of it. Calls of active or inactive are those of the source. No cut-off for these calls is given here.

Assays:
[1] = target: Tyrosine-protein kinase ABL1 (Homo sapiens, UniProt P00519)
Chain of Tyrosine-protein kinase ABL1 (P00519 whole entry): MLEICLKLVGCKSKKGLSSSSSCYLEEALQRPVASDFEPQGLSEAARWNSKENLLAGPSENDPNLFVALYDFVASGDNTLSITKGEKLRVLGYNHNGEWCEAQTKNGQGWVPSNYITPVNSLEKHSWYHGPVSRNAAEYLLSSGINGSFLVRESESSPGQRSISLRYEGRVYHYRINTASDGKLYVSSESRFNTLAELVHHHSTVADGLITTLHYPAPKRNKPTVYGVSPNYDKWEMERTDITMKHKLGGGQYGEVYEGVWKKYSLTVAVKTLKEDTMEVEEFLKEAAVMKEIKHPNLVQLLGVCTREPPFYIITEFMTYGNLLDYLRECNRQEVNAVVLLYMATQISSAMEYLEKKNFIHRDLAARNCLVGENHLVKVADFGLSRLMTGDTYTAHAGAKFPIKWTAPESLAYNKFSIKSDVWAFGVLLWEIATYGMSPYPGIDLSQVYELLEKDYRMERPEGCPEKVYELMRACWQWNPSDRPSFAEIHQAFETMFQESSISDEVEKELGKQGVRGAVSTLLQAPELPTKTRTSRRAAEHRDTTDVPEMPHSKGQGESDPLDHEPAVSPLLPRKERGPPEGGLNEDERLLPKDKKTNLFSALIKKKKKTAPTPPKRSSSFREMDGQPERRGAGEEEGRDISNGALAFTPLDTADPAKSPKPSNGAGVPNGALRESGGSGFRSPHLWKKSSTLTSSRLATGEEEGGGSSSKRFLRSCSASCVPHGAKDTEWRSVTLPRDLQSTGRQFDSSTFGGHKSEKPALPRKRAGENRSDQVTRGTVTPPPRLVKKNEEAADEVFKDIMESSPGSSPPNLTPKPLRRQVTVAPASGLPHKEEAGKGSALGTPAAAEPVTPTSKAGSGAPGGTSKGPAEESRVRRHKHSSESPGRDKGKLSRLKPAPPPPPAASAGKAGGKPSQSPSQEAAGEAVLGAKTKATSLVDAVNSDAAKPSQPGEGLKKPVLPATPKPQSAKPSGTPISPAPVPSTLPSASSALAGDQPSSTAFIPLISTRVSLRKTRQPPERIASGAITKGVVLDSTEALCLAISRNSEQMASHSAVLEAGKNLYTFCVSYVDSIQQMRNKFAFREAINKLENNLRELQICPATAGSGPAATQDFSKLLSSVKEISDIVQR

[2] = target: Proto-oncogene tyrosine-protein kinase Src (Homo sapiens, UniProt P12931); assay: biochemical; format: cell-based
Chain of Proto-oncogene tyrosine-protein kinase Src (P12931 2-536 limits assumed): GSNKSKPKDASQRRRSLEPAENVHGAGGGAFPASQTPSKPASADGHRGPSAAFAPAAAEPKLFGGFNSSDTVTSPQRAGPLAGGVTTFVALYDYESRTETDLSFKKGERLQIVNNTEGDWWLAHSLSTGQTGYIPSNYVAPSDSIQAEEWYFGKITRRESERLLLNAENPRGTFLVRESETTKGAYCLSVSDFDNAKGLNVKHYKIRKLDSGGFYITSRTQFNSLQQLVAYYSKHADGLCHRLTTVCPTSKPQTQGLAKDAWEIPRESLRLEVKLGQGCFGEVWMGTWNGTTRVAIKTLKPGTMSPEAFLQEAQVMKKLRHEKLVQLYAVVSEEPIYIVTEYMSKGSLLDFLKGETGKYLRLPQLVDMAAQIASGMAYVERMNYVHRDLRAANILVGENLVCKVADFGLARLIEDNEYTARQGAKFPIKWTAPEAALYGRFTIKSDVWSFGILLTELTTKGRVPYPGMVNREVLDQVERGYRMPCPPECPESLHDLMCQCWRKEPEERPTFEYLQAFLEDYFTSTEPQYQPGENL

MCF7 [3] = assay: cells; settings: Homo sapiens, MCF7, 120 h
MCF7 [4] = assay: Antiproliferative activity against human MCF7 cells assessed as reduction in cell confluence level at […] after 5 days by microscopy based time-lapse imaging assay; format: functional
MDA-MB-231 = assay: cells; settings: Homo sapiens, MDA-MB-231, 120 h
[5] = target: Platelet-derived growth factor receptor alpha (Homo sapiens, UniProt P16234); assay: Inhibition of human PDGFRalpha using poly[Glu,Tyr]4:1 as substrate in presence of [gamma-33P]ATP
Chain of Platelet-derived growth factor receptor alpha (P16234 whole entry): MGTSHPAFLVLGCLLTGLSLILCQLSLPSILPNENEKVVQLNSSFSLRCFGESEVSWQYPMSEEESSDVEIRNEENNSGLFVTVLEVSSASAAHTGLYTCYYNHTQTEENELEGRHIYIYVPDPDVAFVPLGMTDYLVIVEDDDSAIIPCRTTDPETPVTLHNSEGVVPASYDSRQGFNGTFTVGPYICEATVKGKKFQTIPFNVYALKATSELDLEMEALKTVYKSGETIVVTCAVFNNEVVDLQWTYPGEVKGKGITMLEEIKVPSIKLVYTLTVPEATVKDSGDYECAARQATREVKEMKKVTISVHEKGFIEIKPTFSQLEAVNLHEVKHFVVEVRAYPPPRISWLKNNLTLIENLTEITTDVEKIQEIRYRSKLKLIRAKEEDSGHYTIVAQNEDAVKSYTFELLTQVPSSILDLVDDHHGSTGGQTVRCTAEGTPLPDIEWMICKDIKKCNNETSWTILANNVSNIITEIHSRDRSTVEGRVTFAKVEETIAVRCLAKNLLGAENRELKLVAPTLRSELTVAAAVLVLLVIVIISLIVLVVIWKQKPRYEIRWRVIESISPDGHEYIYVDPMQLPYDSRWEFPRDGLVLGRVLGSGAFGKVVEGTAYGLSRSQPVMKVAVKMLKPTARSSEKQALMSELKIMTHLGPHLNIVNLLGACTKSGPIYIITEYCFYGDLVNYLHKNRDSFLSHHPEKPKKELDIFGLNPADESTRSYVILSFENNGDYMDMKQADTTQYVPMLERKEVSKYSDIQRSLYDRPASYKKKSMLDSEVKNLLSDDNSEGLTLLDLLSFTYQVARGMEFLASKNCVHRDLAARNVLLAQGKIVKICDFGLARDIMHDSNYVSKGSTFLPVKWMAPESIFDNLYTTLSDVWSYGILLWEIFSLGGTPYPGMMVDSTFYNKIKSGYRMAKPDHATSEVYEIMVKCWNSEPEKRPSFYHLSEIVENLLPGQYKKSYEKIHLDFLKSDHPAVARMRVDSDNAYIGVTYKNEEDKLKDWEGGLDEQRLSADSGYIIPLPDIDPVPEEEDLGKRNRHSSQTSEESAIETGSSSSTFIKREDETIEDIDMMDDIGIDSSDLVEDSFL

[6] = target: Proto-oncogene tyrosine-protein kinase receptor Ret (Homo sapiens, UniProt P07949); assay: Inhibition of human RET using poly[Glu,Tyr]4:1 as substrate in presence of [gamma-33P]ATP
[7] = target: Mast/stem cell growth factor receptor Kit (Homo sapiens, UniProt P10721); assay: Inhibition of human KIT using poly[Glu,Tyr]4:1 as substrate in presence of [gamma-33P]ATP
Chain of Mast/stem cell growth factor receptor Kit (P10721 whole entry): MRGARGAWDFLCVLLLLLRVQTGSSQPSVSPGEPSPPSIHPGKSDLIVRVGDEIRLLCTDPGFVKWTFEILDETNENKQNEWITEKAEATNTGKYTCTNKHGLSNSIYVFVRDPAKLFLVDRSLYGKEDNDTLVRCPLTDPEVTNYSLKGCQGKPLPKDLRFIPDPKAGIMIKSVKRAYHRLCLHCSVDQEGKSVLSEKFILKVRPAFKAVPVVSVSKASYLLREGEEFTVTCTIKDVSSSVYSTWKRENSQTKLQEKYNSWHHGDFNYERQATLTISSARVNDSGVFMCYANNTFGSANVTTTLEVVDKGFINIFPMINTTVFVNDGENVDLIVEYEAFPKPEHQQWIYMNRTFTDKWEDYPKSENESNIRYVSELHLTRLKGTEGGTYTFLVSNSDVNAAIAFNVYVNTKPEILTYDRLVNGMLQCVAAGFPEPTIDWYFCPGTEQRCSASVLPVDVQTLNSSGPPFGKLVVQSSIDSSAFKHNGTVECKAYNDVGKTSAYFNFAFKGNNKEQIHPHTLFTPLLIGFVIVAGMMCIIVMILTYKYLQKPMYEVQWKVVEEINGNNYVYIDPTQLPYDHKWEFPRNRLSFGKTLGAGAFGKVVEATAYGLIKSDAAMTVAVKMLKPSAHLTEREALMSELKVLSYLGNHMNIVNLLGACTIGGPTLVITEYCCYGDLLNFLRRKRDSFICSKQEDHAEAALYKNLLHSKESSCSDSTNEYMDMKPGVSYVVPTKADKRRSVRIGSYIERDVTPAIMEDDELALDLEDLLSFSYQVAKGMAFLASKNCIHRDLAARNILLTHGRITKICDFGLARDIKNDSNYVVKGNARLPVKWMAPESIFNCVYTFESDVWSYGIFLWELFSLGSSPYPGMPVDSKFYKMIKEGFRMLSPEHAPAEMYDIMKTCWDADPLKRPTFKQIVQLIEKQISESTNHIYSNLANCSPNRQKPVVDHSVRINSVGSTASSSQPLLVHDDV

[8] = target: Serine/threonine-protein kinase mTOR (Homo sapiens, UniProt P42345); assay: Inhibition of human mTOR using poly[Glu,Tyr]4:1 as substrate in presence of [gamma-33P]ATP
[9] = target: Tyrosine-protein kinase Yes (Homo sapiens, UniProt P07947); assay: Inhibition of human YES using poly[Glu,Tyr]4:1 as substrate in presence of [gamma-33P] ATP
Chain of Tyrosine-protein kinase Yes (P07947 whole entry): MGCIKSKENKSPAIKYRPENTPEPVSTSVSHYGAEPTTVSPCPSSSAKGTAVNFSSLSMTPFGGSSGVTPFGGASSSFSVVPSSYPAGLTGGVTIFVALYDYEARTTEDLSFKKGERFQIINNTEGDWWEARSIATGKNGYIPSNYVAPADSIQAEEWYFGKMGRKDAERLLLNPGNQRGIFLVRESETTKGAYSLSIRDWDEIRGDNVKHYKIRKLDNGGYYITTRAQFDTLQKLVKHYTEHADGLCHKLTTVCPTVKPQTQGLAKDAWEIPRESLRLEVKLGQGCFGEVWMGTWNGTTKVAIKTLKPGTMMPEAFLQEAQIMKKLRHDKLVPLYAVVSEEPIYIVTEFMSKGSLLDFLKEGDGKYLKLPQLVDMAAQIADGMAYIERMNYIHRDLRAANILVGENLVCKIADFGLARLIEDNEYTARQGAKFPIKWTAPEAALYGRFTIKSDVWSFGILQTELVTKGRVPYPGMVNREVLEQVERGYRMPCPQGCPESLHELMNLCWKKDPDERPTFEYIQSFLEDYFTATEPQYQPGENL

MCF7 [10] = assay: Antiproliferative activity against human MCF7 cells assessed as cell death at […] after 48 to 120 hrs by microscopy based time-lapse imaging assay; format: functional

SMILES: CCOC(Cn1nc(C#Cc2ccccc2)c2c(N)ncnc21)OCC
pEC50 (MCF7 [3]): 5.30

SMILES: Cc1ccc(-c2nn(CCN3CCN(CCN(C)C)CC3)c3ncnc(N)c23)cc1
Activity (MCF7 [4]): Active

SMILES: CN(C)C1CCN(CCn2nc(-c3ccc(NC(=O)OC(C)(C)C)nc3)c3c(N)ncnc32)CC1
pEC50 (MDA-MB-231): 4.75

SMILES: Cc1ccc(-c2nn(CCN3CCC(N(C)C)CC3)c3ncnc(N)c23)cc1
pIC50 [5]: < 5.00
pIC50 [6]: 5.18
Activity (MCF7 [4]): Active
pIC50 [7]: < 5.00
pIC50 [8]: < 5.00

SMILES: COc1cc(-c2nn(CCN3CCC(N(C)C)CC3)c3ncnc(N)c23)ccc1NCc1cccnc1
pEC50 (MDA-MB-231): 5.38

SMILES: COc1cc(-c2nn(CCN3CCC(N(C)C)CC3)c3ncnc(N)c23)ccc1N
pEC50 (MDA-MB-231): 5.17

SMILES: CCOC(Cn1nc(-c2ccc3ncccc3c2)c2c(N)ncnc21)OCC
pEC50 (MCF7 [3]): 3.58

SMILES: Cc1ccc(-c2nn(C(C)(C)C)c3ncnc(N)c23)cc1
pIC50 [5]: 6.18
pIC50 [9]: 7.44

SMILES: CCOC(Cn1nc(-c2ccc(OC)c(OC)c2)c2c(N)ncnc21)OCC
pEC50 (MCF7 [3]): 5.21

SMILES: CCOC(Cn1nc(-c2ccc(C)cc2)c2c(N)ncnc21)OCC
pEC50 (MCF7 [3]): 4.51

SMILES: CN(C)C1CCN(CCn2nc(-c3cccc(NC(=O)OC(C)(C)C)c3)c3c(N)ncnc32)CC1
pEC50 (MDA-MB-231): 4.57

SMILES: COc1cc(-c2ccn(CCN3CCC(N(C)C)CC3)n2)ccc1NC(=O)OC(C)(C)C
pEC50 (MDA-MB-231): 4.49

Further lines, with some results ahead:

pIC50 [1]: < 5.00
pIC50 [2]: 7.15
SMILES: CN(C)C1CCN(CCn2nc(-c3ccc(NC(=O)OC(C)(C)C)cc3)c3c(N)ncnc32)CC1

pEC50 (MDA-MB-231): 4.91
SMILES: COc1cc(-c2nn(CCN3CCC(N(C)C)CC3)c3ncnc(N)c23)ccc1NC(=O)CCc1ccccc1

pEC50 (MCF7 [3]): 4.52
SMILES: CN(C)CC1CCN(CCn2nc(-c3cccc(O)c3)c3c(N)ncnc32)CC1

pEC50 (MDA-MB-231): 5.38
SMILES: CN(C)C1CCN(CCn2nc(-c3ccc4c(ccn4C(=O)OC(C)(C)C)c3)c3c(N)ncnc32)CC1

pEC50 (MDA-MB-231): 5.70
SMILES: COc1cc(-c2nn(CCN3CCCC(N(C)C)C3)c3ncnc(N)c23)ccc1NC(=O)OC(C)(C)C (configuration not stated)

pIC50 [5]: < 5.00
pIC50 [7]: < 5.00
pIC50 [8]: 5.07
SMILES: CN(C)CC1CCN(CCn2nc(-c3cnc4[nH]ccc4c3)c3c(N)ncnc32)CC1
Activity (MCF7 [10]): Active
